Reference: PubChem BioAssay (NCI)
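Interpolation was linear, between the two tested concentrations surrounding the appropriate level; five concentrations were tested over 48 hours in 96-well plates. TGI denotes the concentration required for complete inhibition of growth.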

How the values were obtained:
Experiment in all cases: NCI anticancer screen, dose series, 48 h
786-0 renal = system: 786-0 renal
A498 renal = system: A498 renal
A549 NSCLC = system: A549 NSCLC
ACHN renal = system: ACHN renal
CAKI-1 renal = system: CAKI-1 renal
CCRF-CEM leukemia = system: CCRF-CEM leukemia
COLO 205 colon = system: COLO 205 colon
DLD-1 colon = system: DLD-1 colon
DMS 114 small cell lung = system: DMS 114 small cell lung
DMS 273 small cell lung = system: DMS 273 small cell lung
EKVX NSCLC = system: EKVX NSCLC
HCC-2998 colon = system: HCC-2998 colon
HCT-116 colon = system: HCT-116 colon
HCT-15 colon = system: HCT-15 colon
HL-60(TB) leukemia = system: HL-60(TB) leukemia
HOP-18 NSCLC = system: HOP-18 NSCLC
HOP-62 NSCLC = system: HOP-62 NSCLC
HOP-92 NSCLC = system: HOP-92 NSCLC
HT29 colon = system: HT29 colon
IGROV1 ovarian = system: IGROV1 ovarian
K-562 leukemia = system: K-562 leukemia
KM12 colon = system: KM12 colon
KM20L2 colon = system: KM20L2 colon
LOX IMVI melanoma = system: LOX IMVI melanoma
LXFL 529 NSCLC = system: LXFL 529 NSCLC
M14 melanoma = system: M14 melanoma
M19-MEL melanoma = system: M19-MEL melanoma
MALME-3M melanoma = system: MALME-3M melanoma
MOLT-4 leukemia = system: MOLT-4 leukemia
NCI-H226 lung = system: NCI-H226 lung
NCI-H23 lung = system: NCI-H23 lung
NCI-H460 lung = system: NCI-H460 lung
NCI-H522 lung = system: NCI-H522 lung
OVCAR-3 ovarian = system: OVCAR-3 ovarian
OVCAR-4 ovarian = system: OVCAR-4 ovarian
OVCAR-5 ovarian = system: OVCAR-5 ovarian
OVCAR-8 ovarian = system: OVCAR-8 ovarian
RPMI-8226 leukemia = system: RPMI-8226 leukemia
RXF 393 renal = system: RXF 393 renal
RXF-631 renal = system: RXF-631 renal
SF-268 CNS = system: SF-268 CNS
SF-295 CNS = system: SF-295 CNS
SF-539 CNS = system: SF-539 CNS
SK-MEL-2 melanoma = system: SK-MEL-2 melanoma
SK-MEL-28 melanoma = system: SK-MEL-28 melanoma
SK-MEL-5 melanoma = system: SK-MEL-5 melanoma
SK-OV-3 ovarian = system: SK-OV-3 ovarian
SN12C renal = system: SN12C renal
SNB-19 CNS = system: SNB-19 CNS
SNB-75 CNS = system: SNB-75 CNS
SNB-78 CNS = system: SNB-78 CNS
SW-620 colon = system: SW-620 colon
TK-10 renal = system: TK-10 renal
U251 CNS = system: U251 CNS
UACC-257 melanoma = system: UACC-257 melanoma
UACC-62 melanoma = system: UACC-62 melanoma
UO-31 renal = system: UO-31 renal
XF 498 CNS = system: XF 498 CNS

CC(=O)OCC1OC(n2c(=O)n(-c3ccccc3)c(=O)c3ccccc32)C(OC(C)=O)C(OC(C)=O)C1OC(C)=O (configuration not stated)
TGI (786-0 renal): > 100 µM | TGI (A498 renal): > 100 µM | TGI (A549 NSCLC): > 100 µM | TGI (ACHN renal): > 100 µM | TGI (CAKI-1 renal): > 100 µM | TGI (CCRF-CEM leukemia): > 100 µM | TGI (COLO 205 colon): > 100 µM | TGI (DLD-1 colon): > 100 µM | TGI (DMS 114 small cell lung): > 100 µM | TGI (DMS 273 small cell lung): > 100 µM | TGI (EKVX NSCLC): > 100 µM | TGI (HCC-2998 colon): > 100 µM | TGI (HCT-116 colon): > 100 µM | TGI (HCT-15 colon): > 100 µM | TGI (HL-60(TB) leukemia): > 100 µM | TGI (HOP-18 NSCLC): > 100 µM | TGI (HOP-62 NSCLC): > 100 µM | TGI (HOP-92 NSCLC): > 100 µM | TGI (HT29 colon): > 100 µM | TGI (IGROV1 ovarian): > 100 µM | TGI (K-562 leukemia): > 100 µM | TGI (KM12 colon): > 100 µM | TGI (KM20L2 colon): > 100 µM | TGI (LOX IMVI melanoma): > 100 µM | TGI (LXFL 529 NSCLC): > 100 µM | TGI (M14 melanoma): > 100 µM | TGI (M19-MEL melanoma): > 100 µM | TGI (MALME-3M melanoma): > 100 µM | TGI (MOLT-4 leukemia): > 100 µM | TGI (NCI-H226 lung): > 100 µM | TGI (NCI-H23 lung): > 100 µM | TGI (NCI-H460 lung): > 100 µM | TGI (NCI-H522 lung): > 100 µM | TGI (OVCAR-3 ovarian): > 100 µM | TGI (OVCAR-4 ovarian): > 100 µM | TGI (OVCAR-5 ovarian): > 100 µM | TGI (OVCAR-8 ovarian): > 100 µM | TGI (RPMI-8226 leukemia): > 100 µM | TGI (RXF 393 renal): > 100 µM | TGI (RXF-631 renal): > 100 µM | TGI (SF-268 CNS): > 100 µM | TGI (SF-295 CNS): > 100 µM | TGI (SF-539 CNS): > 100 µM | TGI (SK-MEL-2 melanoma): > 100 µM | TGI (SK-MEL-28 melanoma): > 100 µM | TGI (SK-MEL-5 melanoma): > 100 µM | TGI (SK-OV-3 ovarian): > 100 µM | TGI (SN12C renal): > 100 µM | TGI (SNB-19 CNS): > 100 µM | TGI (SNB-75 CNS): > 100 µM | TGI (SNB-78 CNS): > 100 µM | TGI (SW-620 colon): > 100 µM | TGI (TK-10 renal): > 100 µM | TGI (U251 CNS): > 100 µM | TGI (UACC-257 melanoma): > 100 µM | TGI (UACC-62 melanoma): > 100 µM | TGI (UO-31 renal): > 100 µM

COc1ccc2ccc([Se]c3ccc4ccc(OC)cc4c3)cc2c1
TGI (786-0 renal): > 100 µM | TGI (A498 renal): > 100 µM | TGI (A549 NSCLC): > 100 µM | TGI (ACHN renal): > 100 µM | TGI (CAKI-1 renal): > 100 µM | TGI (CCRF-CEM leukemia): > 100 µM | TGI (COLO 205 colon): > 100 µM | TGI (DLD-1 colon): > 100 µM | TGI (DMS 114 small cell lung): > 100 µM | TGI (DMS 273 small cell lung): > 100 µM | TGI (HCC-2998 colon): > 100 µM | TGI (HCT-116 colon): > 100 µM | TGI (HCT-15 colon): > 100 µM | TGI (HL-60(TB) leukemia): > 100 µM | TGI (HOP-18 NSCLC): > 100 µM | TGI (HOP-62 NSCLC): > 100 µM | TGI (HOP-92 NSCLC): > 100 µM | TGI (HT29 colon): > 100 µM | TGI (IGROV1 ovarian): > 100 µM | TGI (K-562 leukemia): > 100 µM | TGI (KM12 colon): > 100 µM | TGI (KM20L2 colon): > 100 µM | TGI (LOX IMVI melanoma): > 100 µM | TGI (LXFL 529 NSCLC): > 100 µM | TGI (M14 melanoma): > 100 µM | TGI (M19-MEL melanoma): > 100 µM | TGI (MALME-3M melanoma): > 100 µM | TGI (MOLT-4 leukemia): > 100 µM | TGI (NCI-H226 lung): > 100 µM | TGI (NCI-H23 lung): > 100 µM | TGI (NCI-H460 lung): > 100 µM | TGI (NCI-H522 lung): > 100 µM | TGI (OVCAR-3 ovarian): > 100 µM | TGI (OVCAR-4 ovarian): 46.6 µM | TGI (OVCAR-8 ovarian): 98.2 µM | TGI (RPMI-8226 leukemia): > 100 µM | TGI (RXF 393 renal): > 100 µM | TGI (SF-268 CNS): > 100 µM | TGI (SF-295 CNS): > 100 µM | TGI (SF-539 CNS): > 100 µM | TGI (SK-MEL-2 melanoma): > 100 µM | TGI (SK-MEL-28 melanoma): > 100 µM | TGI (SK-MEL-5 melanoma): > 100 µM | TGI (SK-OV-3 ovarian): > 100 µM | TGI (SN12C renal): > 100 µM | TGI (SNB-19 CNS): 68.8 µM | TGI (SNB-75 CNS): 76.8 µM | TGI (SNB-78 CNS): > 100 µM | TGI (SW-620 colon): > 100 µM | TGI (TK-10 renal): > 100 µM | TGI (U251 CNS): 99.2 µM | TGI (UACC-257 melanoma): > 100 µM | TGI (UACC-62 melanoma): > 100 µM | TGI (UO-31 renal): 95.8 µM | TGI (XF 498 CNS): > 100 µM
